Test results taken from patent US8383619B2, “Pharmaceutical compounds” (Astex Therapeutics Limited, priority 2008, dated 2013).

What was measured:
Assay in all cases: Anti-proliferative assay (Oncodesign)
Format in all cases: cell-based
[1] = tested on: LB37-NSCLC; settings: LB37-NSCLC (LUNG); read-out: IC50 (Concentration of test compound)
Description: (§1) The anti-proliferative activities of the parent compounds of the pro-drugs of the invention may be determined by measuring the ability of the compounds to inhibition of cell growth in a number of cell lines such as the human colon cancer cell line HCT116. Inhibition of cell growth is measured using the Alamar Blue assay (Nociari, M. M, Shalev, A., Benias, P., Russo, C. Journal of Immunological Methods 1998, 213, 157-167). The method is based on the ability of viable cells to reduce resazurin to its fluorescent product resorufin. For each proliferation assay cells are plated onto 96 well plates and allowed to recover for 16 hours prior to the addition of inhibitor compounds for a further 72 hours. At the end of the incubation period 10% (v/v) Alamar Blue is added and incubated for a further 6 hours prior to determination of fluorescent product at […]. In the case of the non-proliferating cell assay cells are maintained at confluence for 96 hour prior to the addition of inhibitor compounds for a further 72 hours. The number of viable cells is determined by Alamar Blue assay as before. Cell lines may be obtained from the ECACC (European Collection of cell Cultures).
(§2) The parent compound of the pro-drugs of Examples 1 to 25 i.e. (2,4-dihydroxy-5-isopropyl-phenyl)-[5-(4-methyl-piperazin-1-ylmethyl)-1,3-dihydro-isoindol-2-yl]-methanone, in the form of its L-lactate salt, was tested in anti-proliferative assays against one hundred cell lines by Oncodesign (Dijon, France). The IC50 values against each cell line are set out in the table below and the figures in the table refer to nanomolar concentrations. The compounds were tested up to a concentration of 10,000 nanomolar.

[2] = tested on: EHEB; settings: EHEB (BLOOD); read-out: IC50 (Concentration of test compound)
Description: as §1, §2

[3] = tested on: A-427; settings: Homo sapiens; A-427 (LUNG); read-out: IC50 (Concentration of test compound)
Description: as §1, §2

[4] = tested on: HCT-15; settings: Homo sapiens; HCT-15 (COLON); read-out: IC50 (Concentration of test compound)
Description: as §1, §2

[5] = tested on: LB996-RCC; settings: LB996-RCC (KIDNEY); read-out: IC50 (Concentration of test compound)
Description: as §1, §2

[6] = tested on: BB65-RCC; settings: BB65-RCC (KIDNEY); read-out: IC50 (Concentration of test compound)
Description: as §1, §2

[7] = tested on: CCRF-CEM/VLB; settings: Homo sapiens; CCRF-CEM/VLB (BLOOD); read-out: IC50 (Concentration of test compound)
Description: as §1, §2

[8] = tested on: DU 145; settings: Homo sapiens; DU 145 (PROSTATE); read-out: IC50 (Concentration of test compound)
Description: as §1, §2

[9] = tested on: LB796-BLC; settings: LB796-BLC (URINARY BLADDER); read-out: IC50 (Concentration of test compound)
Description: as §1, §2

[10] = tested on: BB49-HNSCC; settings: BB49-HNSCC (HEAD AND NECK); read-out: IC50 (Concentration of test compound)
Description: as §1, §2

[11] = tested on: MDA-MB-435; settings: Homo sapiens; MDA-MB-435 (BREAST); read-out: IC50 (Concentration of test compound)
Description: as §1, §2

[12] = tested on: NIH: OVCAR-3/CPT20; settings: Homo sapiens; NIH: OVCAR-3/CPT20 (OVARY); read-out: IC50 (Concentration of test compound)
Description: as §1, §2

[13] = tested on: Caki-1; settings: Homo sapiens; Caki-1 (KIDNEY); read-out: IC50 (Concentration of test compound)
Description: as §1, §2

[14] = tested on: PA-1; settings: Homo sapiens; PA-1 (OVARY); read-out: IC50 (Concentration of test compound)
Description: as §1, §2

[15] = tested on: LoVo; settings: Homo sapiens; LoVo (COLON); read-out: IC50 (Concentration of test compound)
Description: as §1, §2

[16] = tested on: CGL-3; settings: CGL-3 (BRAIN); read-out: IC50 (Concentration of test compound)
Description: as §1, §2

[17] = tested on: Hs 294T; settings: Homo sapiens; Hs 294T (SKIN); read-out: IC50 (Concentration of test compound)
Description: as §1, §2

[18] = tested on: KB; settings: Homo sapiens; KB (HEAD AND NECK); read-out: IC50 (Concentration of test compound)
Description: as §1, §2

[19] = tested on: Caov-3; settings: Homo sapiens; Caov-3 (OVARY); read-out: IC50 (Concentration of test compound)
Description: as §1, §2

[20] = tested on: KG-1; settings: Homo sapiens; KG-1 (BLOOD); read-out: IC50 (Concentration of test compound)
Description: as §1, §2

[21] = tested on: HCC1954; settings: Homo sapiens; HCC1954 (BREAST); read-out: IC50 (Concentration of test compound)
Description: as §1, §2

[22] = tested on: RPMI 8226/Dox40; settings: Homo sapiens; RPMI 8226/Dox40 (BLOOD); read-out: IC50 (Concentration of test compound)
Description: as §1, §2

[23] = tested on: LB1319-MEL; settings: LB1319-MEL (SKIN); read-out: IC50 (Concentration of test compound)
Description: as §1, §2

[24] = tested on: FaDu; settings: Homo sapiens; FaDu (HEAD AND NECK); read-out: IC50 (Concentration of test compound)
Description: as §1, §2

[25] = tested on: AGS; settings: Homo sapiens; AGS (STOMACH); read-out: IC50 (Concentration of test compound)
Description: as §1, §2

For `CC(C)c1cc(C(=O)N2Cc3ccc(CN4CCN(C)CC4)cc3C2)c(O)cc1O` [(2,4-dihydroxy-5-isopropyl-phenyl)-[5-(4-methyl-piperazin-1-ylmethyl)-1,3-dihydro-isoindol-2-yl]-methanone], the IC50 [1] was 0.063 µM, the IC50 [2] was over 10 µM and the IC50 [3] was 0.13 µM. It also gave an IC50 [4] of over 10 µM, an IC50 [5] of 0.158 µM and an IC50 [6] of 1.25 µM. For the same compound, the IC50 [7] was over 10 µM, the IC50 [8] was 0.085 µM and the IC50 [9] was 0.083 µM. The IC50 [10] was 0.146 µM, the IC50 [11] was 0.122 µM and the IC50 [12] was over 10 µM. It also gave an IC50 [13] of over 10 µM, an IC50 [14] of over 10 µM and an IC50 [15] of 0.051 µM. For the same compound, the IC50 [16] was 0.075 µM, the IC50 [17] was 0.219 µM and the IC50 [18] was 0.048 µM. It also gave an IC50 [19] of 0.094 µM, an IC50 [20] of over 10 µM and an IC50 [21] of 0.028 µM. For the same compound, the IC50 [22] was 0.213 µM, the IC50 [23] was 0.035 µM and the IC50 [24] was 0.029 µM. The IC50 [25] was 0.066 µM.
